Results taken from ChEMBL document CHEMBL4715719, “Synthesis and biological properties of polyamine modified flavonoids as hepatocellular carcinoma inhibitors” (Eur J Med Chem, 2016).
Activity calls are given as the source filed them. The rule behind the calls is not given here.

How the values were obtained:
HepG2 [1] = assay: Induction of apoptosis in human HepG2 cells assessed as activation of caspase 9 at 50 to 70 uM measured after 48 hrs by immunofluorescence assay; format: functional, cell-based; conditions: dose 50-70 µM
SMMC-7721 = assay: Antiproliferative activity against human […] cells assessed as inhibition of cell proliferation at 30 uM measured after 48 hrs by MTT assay relative to control; format: functional
HepG2 [2] = assay: Antiproliferative activity against human HepG2 cells assessed as inhibition of cell proliferation at 100 uM measured after 48 hrs by MTT assay relative to control; format: functional
Mus musculus [3] = assay: Upregulation of phosphorylated JNK in Kunming mouse implanted with mouse H22 cells assessed as activation of p53 measured after 48 hrs in presence of aspirin by immunofluorescence analysis; format: functional; conditions: dose 10-30 µM
HepG2 [4] = assay: Induction of lysosomal impairment in human HepG2 cells after 48 hrs by Lyso-tracker Red staining based assay; format: functional, cell-based; conditions: dose 50-70 µM
H22 [5] = assay: (§1) Antimetastatic activity against mouse H22 cells implanted in Kunming mouse assessed as inhibition of metastasis at 10 mg/kg, iv administered for 7 consecutive days starting from day 11 post inoculation and measured after 18 days relative to control; format: functional; conditions: 192 h, time 8 day
H22 [6] = assay: (§2) Antitumor activity against mouse H22 cells implanted in Kunming mouse assessed as reduction in tumor weight at 10 mg/kg, iv administered for 7 consecutive days starting from day 8 post inoculation and measured after 16 days (reference value: 2.15 +/- 0.51 g); format: functional; conditions: time 8 day
HepG2 [7] = assay: Induction of ROS generation in human HepG2 cells after 48 hrs by DCFH-DA staining based assay; format: functional, cell-based; conditions: dose 50-70 µM
[8] = Toxicity in Kunming mouse implanted with mouse H22 cells assessed mouse mortality at 10 mg/kg, iv administered for 7 consecutive days starting from day 8 post inoculation cotreated with DFMO at 200 mg/kg and measured after 16 days; format: organism-based; conditions: in vivo, 192 h, time 8 day
HepG2 [9] = assay: Induction of apoptosis in human HepG2 cells after 48 hrs by AO/EB staining based assay; format: functional, cell-based; conditions: dose 50-70 µM
HepG2 [10] = assay: Antiinvasive activity against human HepG2 cells assessed as inhibition of cell invasion at 50 to 70 uM measured after 48 hrs in presence of aspirin by wound healing assay; format: functional, cell-based; conditions: dose 50-70 µM
H22 [11] = assay: as §1, with “Potentiation of DFMO-induced antimetastatic” for “Antimetastatic”, “inoculation cotreated with DFMO at 200 mg/kg” for “inoculation”; format: functional; conditions: 192 h, time 8 day
H22 [12] = assay: as §2, with “Potentiation of aspirin-induced antitumor” for “Antitumor”, “inoculation cotreated with aspirin at 10 mg/kg” for “inoculation”, “1.37” for “2.15”, “0.60” for “0.51”; format: functional; conditions: time 8 day
[13] = Toxicity in Kunming mouse implanted with mouse H22 cells assessed as change in body weight at 10 mg/kg, iv administered for 7 consecutive days starting from day 11 post inoculation cotreated with aspirin at 10 mg/kg and measured after 18 days (reference value: -1.2 %); format: organism-based; conditions: in vivo, 192 h, time 8 day
HepG2 [14] = assay: Antiproliferative activity against human HepG2 cells assessed as inhibition of cell proliferation at 30 uM measured after 48 hrs by MTT assay relative to control; format: functional
Mus musculus [15] = assay: Upregulation of phosphorylated p38 in Kunming mouse implanted with mouse H22 cells assessed as activation of p53 measured after 48 hrs by immunofluorescence analysis; format: functional; conditions: dose 10-30 µM
HepG2 [16] = assay: Antimigratory activity against human HepG2 cells assessed as inhibition of cell migration measured after 48 hrs by transwell assay; format: functional, cell-based; conditions: dose 50-70 µM
[17] = Cytotoxicity against human QSG7701 cells assessed as inhibition of cell proliferation at 100 uM measured after 48 hrs by MTT assay relative to control; format: cell-based
HepG2 [18] = assay: Antiproliferative activity against human HepG2 cells assessed as inhibition of cell proliferation measured after 48 hrs by MTT assay; format: functional, cell-based; conditions: HepG2, 48 h
HepG2 [19] = assay: Induction of mitochondrial membrane potential loss in human HepG2 cells after 48 hrs by Rh123 staining based assay; format: functional, cell-based; conditions: dose 50-70 µM
[20] = Toxicity in iv dosed Kunming mouse assessed as maximum tolerated dose; format: organism-based; conditions: in vivo
[21] = Toxicity in Kunming mouse implanted with mouse H22 cells assessed as mouse mortality at 10 mg/kg, iv administered for 7 consecutive days starting from day 8 post inoculation cotreated with aspirin at 10 mg/kg and measured after 16 days; format: organism-based; conditions: in vivo, 192 h, time 8 day
H22 [22] = assay: (§3) Antimetastatic activity against mouse H22 cells implanted in Kunming mouse assessed as number of metastatic focus at 10 mg/kg, iv administered for 7 consecutive days starting from day 11 post inoculation and measured after 18 days (reference value: 5.73 +/- 14.6); format: functional; conditions: time 8 day
Mus musculus [23] = assay: Downregulation of Bcl-2 in Kunming mouse implanted with mouse H22 cells at 10 to 30 uM measured after 48 hrs by immunofluorescence analysis; format: functional; conditions: dose 10-30 µM
[24] = Cytotoxicity against human QSG7701 cells assessed as inhibition of cell proliferation at 30 uM measured after 48 hrs by MTT assay relative to control; format: cell-based
HepG2 [25] = assay: Induction of apoptosis in human HepG2 cells assessed as activation of caspase 8 at 50 to 70 uM measured after 48 hrs by immunofluorescence assay; format: functional, cell-based; conditions: dose 50-70 µM
H22 [26] = assay: as §3, with “Potentiation of aspirin-induced antimetastatic” for “Antimetastatic”, “inoculation cotreated with aspirin at 10 mg/kg” for “inoculation”, “43.6” for “5.73”, “13)” for “14.6)”; format: functional; conditions: time 8 day
H22 [27] = assay: Potentiation of aspirin-induced antitumor activity against mouse H22 cells implanted in Kunming mouse assessed as tumor growth inhibition at 10 mg/kg, iv administered for 7 consecutive days starting from day 8 post inoculation cotreated with aspirin at 10 mg/kg and measured after 16 days (reference value: 36 %); format: functional; conditions: 192 h, time 8 day, read-out: TGI
[28] = Toxicity in Kunming mouse implanted with mouse H22 cells assessed as change in body weight at 10 mg/kg, iv administered for 7 consecutive days starting from day 11 post inoculation cotreated with DFMO at 200 mg/kg and measured after 18 days (reference value: -0.3 %); format: organism-based; conditions: in vivo, 192 h, time 8 day
HepG2 [29] = assay: Antiproliferative activity against human HepG2 cells assessed as inhibition of cell proliferation measured after 48 hrs in presence of 800 uM aspirin by MTT assay; format: functional, cell-based; conditions: HepG2, 48 h
Mus musculus [30] = assay: Upregulation of phosphorylated JNK in Kunming mouse implanted with mouse H22 cells assessed as activation of p53 measured after 48 hrs by immunofluorescence analysis; format: functional; conditions: dose 10-30 µM
HepG2 [31] = assay: Induction of apoptosis in human HepG2 cells assessed as upregulation of phosphorylated p38 at 50 to 70 uM measured after 48 hrs by immunofluorescence assay; format: functional, cell-based; conditions: dose 50-70 µM
H22 [32] = assay: Potentiation of DFMO-induced antitumor activity against mouse H22 cells implanted in Kunming mouse assessed as tumor growth inhibition at 10 mg/kg, iv administered for 7 consecutive days starting from day 8 post inoculation cotreated with DFMO at 200 mg/kg and measured after 16 days (reference value: 38.8 %); format: functional; conditions: 192 h, time 8 day, read-out: TGI
H22 [33] = assay: Antitumor activity against mouse H22 cells implanted in Kunming mouse assessed as tumor growth inhibition at 10 mg/kg, iv administered for 7 consecutive days starting from day 8 post inoculation and measured after 16 days relative to control; format: functional; conditions: 192 h, time 8 day, read-out: TGI
[34] = Toxicity in Kunming mouse implanted with mouse H22 cells assessed as change in mouse body weight at 10 mg/kg, iv administered for 7 consecutive days starting from day 8 post inoculation cotreated with aspirin at 10 mg/kg and measured after 16 days (reference value: 16.7 %); format: organism-based; conditions: in vivo, 192 h, time 8 day
H22 [35] = assay: Potentiation of DFMO-induced antitumor activity against mouse H22 cells implanted in Kunming mouse assessed as reduction in tumor weight at 10 mg/kg, iv administered for 7 consecutive days starting from day 8 post inoculation cotreated with DFMO at 200 mg/kg and measured after 16 days (reference value: 1.31 +/- 0.33 g); format: functional; conditions: time 8 day

Cl.Cl.NCCCNCC(=O)NCc1cccc2c(=O)cc(-c3cccc4ccccc34)oc12
Activity (HepG2 [1]): inactive | inhibition at 30 µM (SMMC-7721): 5.1% | inhibition at 100 µM (HepG2 [2]): 84.2% | Activity (Mus musculus [3]): Active | Activity (HepG2 [4]): Dose-dependent effect | inhibition in vivo at 10 mg/kg (H22 [5]): 29.3% | Activity (H22 [6]): 1.3 g | Activity (HepG2 [7]): Dose-dependent effect | Activity [8]: Non-Toxic | Activity (HepG2 [9]): Dose-dependent effect | inhibition (HepG2 [10]): Active | inhibition in vivo at 10 mg/kg (H22 [11]): 48.9% | Activity (H22 [12]): 0.66 g | Activity [13]: 4.3% | inhibition at 30 µM (HepG2 [14]): 7.9% | Activity (Mus musculus [15]): Dose-dependent effect | inhibition (HepG2 [16]): Dose-dependent effect | inhibition at 48 h, 100 µM [17]: 41.8% | IC50 (HepG2 [18]): 65 µM | Activity (HepG2 [19]): Dose-dependent effect | MTD [20]: 20 mg/kg | Activity [21]: Non-Toxic | Activity (H22 [22]): 40.5 | Activity (Mus musculus [23]): Active | inhibition at 48 h, 30 µM [24]: < 5% | Activity (HepG2 [25]): inactive | Activity (H22 [26]): 23 | inhibition in vivo at 10 mg/kg (H22 [27]): 69.2% | Activity [28]: 1.2% | IC50 (HepG2 [29]): 59.2 µM | Activity (Mus musculus [30]): Dose-dependent effect | Activity (HepG2 [31]): Active | inhibition in vivo at 10 mg/kg (H22 [32]): 43% | inhibition in vivo at 10 mg/kg (H22 [33]): 39.2% | Activity [34]: 19.4% | Activity (H22 [35]): 1.22 g
